Assay results as given in PubChem BioAssay AID1745844 (Carcinogenic Potency Database (CPDB), 2022).
Activity calls are given as the source filed them. The rule behind the calls is not given here.

System: rodent lifetime carcinogenesis bioassay, tumor incidence TD50
Assay: carcinogenic potency in animals, long-term in vivo studies, CPDB compilation (AID 1745844)

## CC(=O)CN(CC(C)=O)N=O
rat, strain Fischer 344, females, by gavage, site: liver, lesion: hepatocellular carcinoma, dosed 30 weeks, study length 95 weeks
  TD50: 0.684 mg/kg/day
rat, strain Fischer 344, females, in drinking water, site: liver, lesion: hemangiosarcoma, dosed 50 weeks, study length 75 weeks
  TD50: 0.892 mg/kg/day
rat, strain Fischer 344, females, in drinking water, site: liver, lesion: hepatocellular carcinoma, dosed 50 weeks, study length 75 weeks
  TD50: 0.582 mg/kg/day
rat, strain Fischer 344, females, in drinking water, site: liver, lesion: several types, types named in the paper, dosed 50 weeks, study length 75 weeks
  TD50: 0.232 mg/kg/day
rat, strain Fischer 344, females, in drinking water, site: lung, lesion: several types, types named in the paper, dosed 50 weeks, study length 75 weeks
  TD50: 0.399 mg/kg/day
rat, strain MRC-Wistar, males, by gavage, site: colorectum, lesion: one or several types, types not named, dosed 104 weeks, study length 104 weeks
  TD50: 1.56 mg/kg/day
rat, strain MRC-Wistar, males, by gavage, site: liver, lesion: one or several types, types not named, dosed 104 weeks, study length 104 weeks
  TD50: 1.56 mg/kg/day
rat, strain MRC-Wistar, males, by gavage, site: lung, lesion: one or several types, types not named, dosed 104 weeks, study length 104 weeks
  TD50: 1.92 mg/kg/day
rat, strain MRC-Wistar, males, by gavage, site: nasal cavity, lesion: one or several types, types not named, dosed 104 weeks, study length 104 weeks
  TD50: 1.56 mg/kg/day
rat, strain MRC-Wistar, males, by gavage, site: prostate, lesion: carcinoma, dosed 74 weeks, study length 74 weeks
  TD50: 1.53 mg/kg/day
rat, strain MRC-Wistar, males, by gavage, site: prostate, lesion: squamous-cell carcinoma, keratinized, dosed 104 weeks, study length 104 weeks
  TD50: 2.41 mg/kg/day
rat, strain MRC-Wistar, males, by gavage, site: thyroid gland, lesion: one or several types, types not named, dosed 104 weeks, study length 104 weeks
  TD50: 3.16 mg/kg/day
rat, strain MRC-Wistar, males, by gavage, site: urethra, lesion: several types, types named in the paper, dosed 104 weeks, study length 104 weeks
  TD50: 0.891 mg/kg/day
rat, strain MRC, females, by gavage, site: any site (literature study), lesion: one or several types, types not named, dosed 73 weeks, study length 77 weeks
  TD50: 0.171 mg/kg/day
rat, strain MRC, females, by gavage, site: liver, lesion: several types, types named in the paper, dosed 73 weeks, study length 77 weeks
  TD50: 0.283 mg/kg/day
rat, strain MRC, females, by gavage, site: lung, lesion: adenoma, dosed 73 weeks, study length 77 weeks
  TD50: 14 mg/kg/day
rat, strain MRC, females, by gavage, site: nasal and paranasal cavity, lesion: several types, types named in the paper, dosed 73 weeks, study length 77 weeks
  TD50: 14 mg/kg/day
rat, strain MRC, females, by gavage, site: thyroid gland, lesion: several types, types named in the paper, dosed 73 weeks, study length 77 weeks
  TD50: 1.39 mg/kg/day
rat, strain MRC, males, by gavage, site: any site (literature study), lesion: one or several types, types not named, dosed 72 weeks, study length 80 weeks
  TD50: 0.0995 mg/kg/day
rat, strain MRC, males, by gavage, site: colon, lesion: several types, types named in the paper, dosed 72 weeks, study length 80 weeks
  TD50: 1.6 mg/kg/day
rat, strain MRC, males, by gavage, site: liver, lesion: several types, types named in the paper, dosed 72 weeks, study length 80 weeks
  TD50: 0.989 mg/kg/day
rat, strain MRC, males, by gavage, site: lung, lesion: several types, types named in the paper, dosed 72 weeks, study length 80 weeks
  TD50: 1.1 mg/kg/day
rat, strain MRC, males, by gavage, site: nasal and paranasal cavity, lesion: several types, types named in the paper, dosed 72 weeks, study length 80 weeks
  TD50: 1.23 mg/kg/day
rat, strain MRC, males, by gavage, site: prostate, lesion: squamous-cell carcinoma, dosed 72 weeks, study length 80 weeks
  TD50: 2.21 mg/kg/day
rat, strain MRC, males, by gavage, site: thyroid gland, lesion: several types, types named in the paper, dosed 72 weeks, study length 80 weeks
  TD50: 0.968 mg/kg/day
rat, strain MRC, males, by gavage, site: urethra, lesion: papilloma, dosed 72 weeks, study length 80 weeks
  TD50: 0.878 mg/kg/day

## CN(Cc1cnc2nc(N)nc(N)c2n1)c1ccc(C(=O)N[C@@H](CCC(=O)O)C(=O)O)cc1
hamster, strain Syrian Golden, females, in feed, site: any site (literature study), lesion: several types, types named in the paper, dosed 101 weeks, study length 105 weeks
  carcinogen call: negative (inactive)
hamster, strain Syrian Golden, females, in feed, site: liver, lesion: hepatocellular adenoma, dosed 101 weeks, study length 105 weeks
  TD50: 51.1 mg/kg/day (inactive)
hamster, strain Syrian Golden, females, in feed, site: liver, lesion: several types, types named in the paper, dosed 101 weeks, study length 105 weeks
  TD50: 167 mg/kg/day
hamster, strain Syrian Golden, males, in feed, site: any site (literature study), lesion: several types, types named in the paper, dosed 108 weeks, study length 115 weeks
  carcinogen call: negative (inactive)
hamster, strain Syrian Golden, males, in feed, site: liver, lesion: one or several types, types not named, dosed 108 weeks, study length 115 weeks
  carcinogen call: negative (inactive)
mouse, strain Swiss, females, in feed, site: any site (literature study), lesion: several types, types named in the paper, dosed 120 weeks, study length 120 weeks
  TD50: 48 mg/kg/day (inactive)
mouse, strain Swiss, females, in feed, site: liver, lesion: hepatocellular carcinoma, dosed 120 weeks, study length 120 weeks
  TD50: 65.2 mg/kg/day (inactive)
mouse, strain Swiss, females, in feed, site: lung, lesion: several types, types named in the paper, dosed 120 weeks, study length 120 weeks
  carcinogen call: negative (inactive)
mouse, strain Swiss, males, in feed, site: any site (literature study), lesion: several types, types named in the paper, dosed 118 weeks, study length 120 weeks
  carcinogen call: negative (inactive)
mouse, strain Swiss, males, in feed, site: liver, lesion: hemangioma, dosed 118 weeks, study length 120 weeks
  carcinogen call: negative (inactive)
mouse, strain Swiss, males, in feed, site: lung, lesion: several types, types named in the paper, dosed 118 weeks, study length 120 weeks
  carcinogen call: negative (inactive)
rat, strain BR 46, males, i.v., site: any site (literature study), lesion: benign tumor, dosed 52 weeks, study length 104 weeks
  TD50: 0.409 mg/kg/day (inactive)
rat, strain BR 46, males, i.v., site: any site (literature study), lesion: malignant tumor, dosed 52 weeks, study length 104 weeks
  TD50: 2.96 mg/kg/day (inactive)
rat, strain BR 46, males, i.v., site: any site (literature study), lesion: several types, types named in the paper, dosed 52 weeks, study length 104 weeks
  TD50: 0.33 mg/kg/day (inactive)
rat, strain Sprague-Dawley, females, i.p., site: any site (literature study), lesion: malignant tumor, dosed 104 weeks, study length 104 weeks
  carcinogen call: negative (inactive)
rat, strain Sprague-Dawley, males, i.p., site: any site (literature study), lesion: malignant tumor, dosed 104 weeks, study length 104 weeks
  carcinogen call: negative (inactive)
